Structures are written as SMILES.

In one assay the target is T1, human TREM2 (Homo sapiens, UniProt Q9NZC2).
T1 construct: expressed in transfected cells; host or cells: HEK293T-hTREM2 cells (HEK cell line expressing human TREM2 and DAP12)
T1 sequence (Q9NZC2 19-230): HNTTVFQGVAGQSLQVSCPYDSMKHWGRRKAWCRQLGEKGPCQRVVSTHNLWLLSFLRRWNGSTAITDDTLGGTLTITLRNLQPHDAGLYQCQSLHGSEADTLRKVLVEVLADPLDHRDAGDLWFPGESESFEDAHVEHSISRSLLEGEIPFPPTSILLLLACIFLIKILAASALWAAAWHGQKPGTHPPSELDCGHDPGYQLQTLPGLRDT
T1 sequence (O43914 22-113 partner): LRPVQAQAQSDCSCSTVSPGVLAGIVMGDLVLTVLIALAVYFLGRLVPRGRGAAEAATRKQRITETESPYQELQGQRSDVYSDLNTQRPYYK
Put plainly: TREM2 agonist potency by cellular phosphorylation of Syk (AlphaLisa) in HEK293T-hTREM2 cells expressing human TREM2 and DAP12. It counts as cell-based.
Conditions: not given
Here is the method:
In vitro Measurement of Triggering Receptor Expressed on Myeloid Cells 2 activity using cellular phosphorylation of Spleen Tyrosine Kinase (“Syk”) Assays
Measurement of TREM2 agonist potency was done using a HEK cell line expressing human TREM2 and DAP12 (HEK293T-hTREM2 cells). Binding of small molecules to, and activation of, TREM2 increases the phosphorylation of Syk. The resultant levels of Syk phosphorylation are measured using a commercial AlphaLisa reagent kit. To perform the assay, HEK-hTREM2 cells were plated at 14,000 cells per well in a 384 well plate, in 25 μL of complete growth media and incubated at 37° C., 5% CO2 for 20-24 hours.
Prior to the assay, test compounds were diluted in the 384 well plates in assay buffer and allowed to equilibrate for 30 minutes. Growth media was removed from cell plates by inversion on blotting paper, and 25 μL of test articles in assay buffer was added to cells. Cells were incubated for 45 minutes at room temperature. After 45 minutes, assay buffer was removed and 10 μL of lysis buffer was added. Plates were shaken for 20 minutes at 350 RPM at room temperature. After complete lysis, AlphaLisa reagents were added to the lysate, and fluourescence intensity was measured using a Perkin Elmer Envision plate reader. Intensities were used to generate a standard curve, and % activation was calculated. Curve fitting was performed using Prism v9 software, log(agonist) vs response—variable slope (four parameters), and EC50s were calculated from the curve fit.
The results presented in Table B have been generated with the in vitro assay described above. This assay may be used to test any of the compounds described herein to assess and characterize a compound's ability to act as an agonist of TREM2.
(In general: Bead proximity is the source of the signal in Alpha formats.)
One may read the EC50 as the midpoint of the concentration-response curve. The compound `Cc1cc2c(-c3ccccc3)nc(N3C[C@@H](C)O[C@@H](c4cnn(C5CC5)c4)C3)nc2nc1C` [Example 68, (2S,6R)-2-(1-cyclopropylpyrazol-4-yl)-4-(6,7-dimethyl-4-phenylpyrido[2,3-d]pyrimidin-2-yl)-6-methyl-morpholine] returned an EC50 of less than 100 nM.

The assay is the same for the next values; noted with them: HEK293 cells expressing hTREM2 and DAP12; 45 minutes at room temperature; Syk phosphorylation, AlphaLisa; read-out: hTREM2 EC50.
Regarding `Cc1cc2c(-c3cccs3)nc(N3C[C@@H](C)O[C@@H](c4cnn(C5CC5)c4)C3)nc2nc1C` [Example 69, (2S,6R)-2-(1-cyclopropyl-pyrazol-4-yl)-4-[6,7-dimethyl-4-(2-thienyl)pyrido-[2,3-d]pyrimidin-2-yl]-6-methyl-morpholine], the EC50 was 100 to 500 nM. On the same count and under the same terms, then `Cc1cc([C@H]2CN(c3nc(C4CCCCC4)c4cc(C#N)c(C)nc4n3)CCO2)cnn1` [Example 46, 4-cyclohexyl-7-methyl-2-[2-(6-methyl-pyridazin-4-yl)morpholin-4-yl]-pyrido[2,3-d]pyrimidine-6-carbonitrile], with less than 100 nM. Still for that read-out and setting: then `Cc1nc2nc(N3C[C@@H](C)O[C@@H](c4cnn(C5CC5)c4)C3)nc(C34CC(C(F)(F)F)(C3)C4)c2nc1C1CN(C)C1` [Example 87, (2S,6R)-2-(1-cyclopropylpyrazol-4-yl)-6-methyl-4-[7-methyl-6-(1-methylazetidin-3-yl)-4-[3-(trifluoromethyl)-1-bicyclo[1.1.1]pentanyl]pteridin-2-yl]morpholine], with 100 to 500 nM; and `Cc1nc2nc(C3CCOC(c4cnnc(N(C)C)c4)C3)nc(C34CC(C(F)(F)F)(C3)C4)c2nc1C` (racemic) [Example 129, N,N-dimethyl-5-[rac-cis-4-[6,7-dimethyl-4-[3-(trifluoromethyl)-1-bicyclo[1.1.1]pentanyl]pteridin-2-yl]tetrahydropyran-2-yl]pyridazin-3-amine], with less than 100 nM. Same read-out and setting: then `Cc1nc2nc(C3CCOC(c4ccn5nccc5c4)C3)nc(C34CC(C(F)(F)F)(C3)C4)c2nc1C` (stereo not drawn) [Example 109, 6,7-dimethyl-2-(2-pyrazolo[1,5-a]pyridin-5-yltetrahydropyran-4-yl)-4-[3-(trifluoromethyl)-1-bicyclo[1.1.1]pentanyl]pteridine], with less than 100 nM. For the compound `Cc1nc2nc(N3C[C@@H](C)O[C@@H](c4ccn5nccc5c4)C3)nc(C34CC(C(F)(F)F)(C3)C4)c2nc1C` [Example 111, (2R,6S)-4-[6,7-dimethyl-4-[3-(trifluoromethyl)-1-bicyclo[1.1.1]pentanyl]pteridin-2-yl]-2-methyl-6-pyrazolo[1,5-a]pyridin-5-yl-morpholine], the 50% effective concentration (EC50) was less than 100 nM.

For `Cc1nc2nc([C@H]3CCO[C@@H](c4cn(C)c(=O)s4)C3)nc(C34CC(C(F)(F)F)(C3)C4)c2nc1C` (racemic) [Example 106, 3-methyl-5-[rac-(2R,4S)-4-[6,7-dimethyl-4-[3-(trifluoromethyl)-1-bicyclo[1.1.1]pentanyl]-pteridin-2-yl]tetrahydropyran-2-yl]thiazol-2-one], the concentration for a half-maximal effect (EC50) is less than 100 nM.

For the compound `Cc1noc(-c2cc3c(-c4ccc(F)cc4F)nc(N4CCCC(N5CCOCC5)C4)nc3nc2C)n1` (stereo not drawn) [Example 15, 4-[1-[4-(2,4-difluorophenyl)-7-methyl-6-(3-methyl-1,2,4-oxadiazol-5-yl)pyrido[2,3-d]pyrimidin-2-yl]-3-piperidyl]morpholine], the EC50 is greater than 500 nM. Take `Cc1nc2nc(N3C[C@@H](C)O[C@@H](c4cnn(C5CC5)c4)C3)nc(C34CC(C(F)F)(C3)C4)c2cc1C#N` [Example 73, 2-((2S,6R)-2-(1-cyclopropyl-1H-pyrazol-4-yl)-6-methylmorpholino)-4-(3-(difluoromethyl)bicyclo[1.1.1]pentan-1-yl)-7-methylpyrido[2,3-d]pyrimidine-6-carbonitrile]: the EC50 was less than 100 nM. Same read-out and setting: then `Cc1cc2c(C3CCCC3)nc(N3C[C@@H](C)O[C@@H](c4cnn(C5CC5)c4)C3)nc2nc1C` [Example 65, (2S,6R)-4-(4-cyclopentyl-6,7-dimethylpyrido[2,3-d]pyrimidin-2-yl)-2-(1-cyclopropylpyrazol-4-yl)-6-methylmorpholine], with less than 100 nM; and `Cc1nc2nc(C3CCOC(c4cnn5c4CCCC5)C3)nc(C34CC(C(F)(F)F)(C3)C4)c2nc1C` (stereo not drawn) [Example 123, 6,7-dimethyl-2-[2-(4,5,6,7-tetrahydropyrazolo[1,5-a]pyridin-3-yl)tetrahydropyran-4-yl]-4-[3-(trifluoromethyl)-1-bicyclo[1.1.1]pentanyl]pteridine], with greater than 500 nM. Same read-out and setting: then `COc1ncc([C@H]2C[C@@H](c3nc(C45CC(C(F)(F)F)(C4)C5)c4nc(C)c(C)nc4n3)CCO2)s1` (racemic) [Example 117, 2-methoxy-5-[rac-(2R,4S)-4-[6,7-dimethyl-4-[3-(trifluoromethyl)-1-bicyclo[1.1.1]pentanyl]pteridin-2-yl]tetrahydropyran-2-yl]thiazole], with less than 100 nM; and `COC(=O)c1cc2c(-c3ccc(F)cc3F)nc(N3C[C@@H](C)O[C@@H](c4cnn(C5CC5)c4)C3)nc2nc1C` [Example 1, methyl 2-[(2S,6R)-2-(1-cyclopropylpyrazol-4-yl)-6-methyl-morpholin-4-yl]-4-(2,4-difluorophenyl)-7-methyl-pyrido[2,3-d]pyrimidine-6-carboxylate], with less than 100 nM. In the case of `Cc1cc2c(-c3ccc(C(F)(F)F)cc3F)nc([C@H]3CCO[C@@H](c4cnn(C5CC5)c4)C3)nc2c(=O)n1C` [Example 136, 2-[(2R,4S)-2-(1-cyclopropylpyrazol-4-yl)tetrahydropyran-4-yl]-4-[2-fluoro-4-(trifluoromethyl)phenyl]-6,7-dimethyl-pyrido[3,4-d]pyrimidin-8-one], the EC50 is less than 100 nM.

Consider `Cc1nc2nc([C@H]3CCO[C@@H](c4cn(C)c(=O)s4)C3)nc(C34CC(C(F)(F)F)(C3)C4)c2nc1C` [Example 108, 5-[(2R,4S)-4-[6,7-dimethyl-4-[3-(trifluoromethyl)-1-bicyclo[1.1.1]pentanyl]pteridin-2-yl]tetrahydropyran-2-yl]-3-methyl-thiazol-2-one], for which the EC50 is less than 100 nM.

Consider `Cc1nc2nc(N3C[C@@H](C)O[C@@H](c4cnn(C5CC5)c4)C3)nc(C34CC(C(F)(F)F)(C3)C4)c2nc1C1COC1` [Example 84, (2S,6R)-2-(1-cyclopropyl-pyrazol-4-yl)-6-methyl-4-[7-methyl-6-(oxetan-3-yl)-4-[3-(trifluoromethyl)-1-bicyclo[1.1.1]pentanyl]-pteridin-2-yl]morpholine], for which the concentration for a half-maximal effect (EC50) is less than 100 nM.

As for `Cc1nc2nc([C@@H]3CCO[C@@H](c4ccnc(N(C)C)c4)C3)nc(C34CC(C(F)(F)F)(C3)C4)c2nc1C` (racemic) [Example 125, N,N-dimethyl-4-[rac-4-[6,7-dimethyl-4-[3-(trifluoromethyl)-1-bicyclo[1.1.1]pentanyl]pteridin-2-yl]tetrahydropyran-2-yl]pyridin-2-amine], the EC50 lay within 100 to 500 nM. As to `Cc1nc2nc([C@H]3CCO[C@@H](c4ccnc(N(C)C)c4)C3)nc(C34CC(C(F)(F)F)(C3)C4)c2nc1C` (racemic) [Example 124, N,N-dimethyl-4-[rac-4-[6,7-dimethyl-4-[3-(trifluoromethyl)-1-bicyclo[1.1.1]pentanyl]pteridin-2-yl]tetrahydropyran-2-yl]pyridin-2-amine], the EC50 was less than 100 nM. The same measure, in the same setting: then `Cc1nc2nc(N3C[C@@H](C)O[C@@H](c4cnn(C5CC5)c4)C3)nc(C34CC(C#N)(C3)C4)c2nc1C` [Example 102, 3-[2-[(2S,6R)-2-(1-cyclopropylpyrazol-4-yl)-6-methyl-morpholin-4-yl]-6,7-dimethyl-pteridin-4-yl]bicyclo[1.1.1]pentane-1-carbonitrile], with less than 100 nM; and `Cc1noc(-c2cc3c(-c4ccc(F)cc4F)nc([C@H]4CCO[C@@H](c5cnn(C6CC6)c5)C4)nc3nc2C)n1` (racemic) [Example 19, 5-[4-(2,4-difluorophenyl)-7-methyl-2-[rac-(2R,4S)-2-(1-cyclopropylpyrazol-4-yl)-tetrahydropyran-4-yl]pyrido[2,3-d]pyrimidin-6-yl]-3-methyl-1,2,4-oxadiazole], with less than 100 nM; and `Cc1nc2nc([C@@H]3CCO[C@H](c4cn(C)c(=O)s4)C3)nc(C34CC(C(F)(F)F)(C3)C4)c2nc1C` [Example 107, 5-[(2S,4R)-4-[6,7-dimethyl-4-[3-(trifluoromethyl)-1-bicyclo[1.1.1]pentanyl]pteridin-2-yl]tetrahydropyran-2-yl]-3-methyl-thiazol-2-one], with less than 100 nM. For `CC(=O)c1cc2c(-c3ccc(F)cc3F)nc(N3C[C@@H](C)O[C@@H](c4cnn(C5CC5)c4)C3)nc2nc1C` [Example 4, 1-[2-[(2S,6R)-2-(1-cyclopropylpyrazol-4-yl)-6-methyl-morpholin-4-yl]-4-(2,4-difluorophenyl)-7-methyl-pyrido[2,3-d]pyrimidin-6-yl]ethanone], the EC50 was less than 100 nM. On the same count and under the same terms, with `Cc1noc(-c2cc3c(-c4ccc(F)cc4F)nc(N4C[C@@H](C)O[C@@H](c5cnn(C6CC6)c5)C4)nc3nc2C)n1` [Example 6, (2S,6R)-2-(1-cyclopropylpyrazol-4-yl)-4-[4-(2,4-difluorophenyl)-7-methyl-6-(3-methyl-1,2,4-oxadiazol-5-yl)-pyrido[2,3-d]pyrimidin-2-yl]-6-methyl-morpholine] the figure was less than 100 nM.
